In brackets after ≈: the same amount, converted by molar mass.
Settings: buffer; pH 7.4; 200.0 µM

| Compound | solubility kinetic [µg/mL] |
| --- | --- |
| CCc1ccccc1N1C(=O)CC(Sc2nccc(C)n2)C1=O (centres undefined) | 47.3 (≈ 144 µM) |
| C/C(=C\C(=O)c1ccc(Cl)cc1Cl)N(C)C | 3.8 (≈ 14.7 µM) |
| Cc1sc2ncnc(NCC(O)c3ccccc3)c2c1C (centres undefined) | 6.6 (≈ 22 µM) |
| Cc1cccc(-c2cc(C(=O)Nc3ccncc3)c3ccccc3n2)c1 | 0.8 (≈ 2.36 µM) |
| Cc1ccc(C)c(NC(=O)COC(=O)CC2CC3CCC2C3)c1 (centres undefined) | 20.4 (≈ 64.7 µM) |
| Nc1cc(N2CCOCC2)c(Cl)cc1[N+](=O)[O-] | 31.4 (≈ 122 µM) |
| COc1ccc(NC(=O)COC(=O)CCNC(=O)c2ccco2)cc1Cl | > 57.1 |
| CN(C)C(=O)c1ccc(=O)n(Cc2ccc(Cl)cc2Cl)c1 | > 48.8 |
| CCc1nc(C)cc2c1sc1ccccc12.Cl | 1 |
| CCc1ccccc1NC(=O)c1ccc(-c2csc(C)n2)cc1 | 1 (≈ 3.1 µM) |
| Cc1ccc(CN2CCS(=O)(=O)CC2)o1 | > 34.4 |
| CCOc1ccc(NC(=O)N2CC(C)OC(C)C2)cc1 (centres undefined) | > 41.8 |
| CCN(CC)CC(O)COC(c1ccccc1)c1ccccc1 (centres undefined) | 41.8 (≈ 133 µM) |
| O=c1[nH]c2ccc(S(=O)(=O)N3CCN(c4ccc(F)cc4)CC3)cc2o1 | 5.7 (≈ 15.1 µM) |
| Cc1ccc(S(=O)(=O)NC(C)CCc2ccccc2)cc1C(N)=O (centres undefined) | > 52 |
| Nc1cc(=O)[nH]c(SCCSc2ccc(F)cc2)n1 | 6.2 (≈ 20.8 µM) |
| CN1CCN(C(=O)N(c2ccccc2)c2ccccc2)CC1.Cl | > 49.8 |
| Cc1cccc(OCCSc2nc3ncnc(N)c3[nH]2)c1 | 1.5 (≈ 4.98 µM) |
| Cc1cc(=O)n2c(n1)NC(=NCc1ccccc1)NC2c1ccccc1 (centres undefined) | > 51.8 |
| Cc1cc(C)cc(N2CC(C(=O)Nc3cc(C)on3)CC2=O)c1 (centres undefined) | 6.7 (≈ 21.4 µM) |
| O=C(NCCN1CCCCC1)Nc1ccc(F)cc1F | > 42.5 |
| Cc1cc2ccccn2c1C(=O)Nc1cccc(Cl)c1 | < 0.3 |
| CC1(c2ccccc2Cl)NC(=O)N(CC(=O)N2CCc3ccccc32)C1=O (centres undefined) | 10.1 (≈ 26.3 µM) |
| COC(=O)c1cc2c(=O)c3ccccc3oc2nc1/C=C/N(C)C | 30.1 (≈ 92.8 µM) |

| Compound | solubility kinetic [µg/mL] |
| --- | --- |
| CCOc1cc(C(=O)NCc2ccco2)cc(OCC)c1OCC | 49.7 (≈ 149 µM) |
| COc1ccc(-c2nc(C)ncc2-c2ccccc2)c(O)c1 | 6.4 (≈ 21.9 µM) |
| O=S(=O)(Nc1ccccc1N1CCCCC1)c1ccc(F)cc1 | 2.5 (≈ 7.48 µM) |
| C=CCOc1ccccc1CN1CCCCCC1 | 28.7 (≈ 117 µM) |
| COc1ccc(C(=O)NCCCn2ccnc2)cc1[N+](=O)[O-] | > 45.6 |
| COc1ccccc1NC(=O)c1cc[n+]([O-])cc1 | > 36.6 |
| O=C(CN1C(=O)S/C(=C\c2ccc(C(=O)O)cc2)C1=O)Nc1ccccc1 | 32.2 (≈ 84.2 µM) |
| COc1cccc(C(=O)C2CN(C)CC2c2ccc(Cl)cc2)c1 (centres undefined) | > 49.5 |
| N#Cc1cccc(C(=O)N(CCc2ccccc2)Cc2cccs2)c1 | 12.9 (≈ 37.2 µM) |
| COc1ccc(OCC2CCNCC2)cc1.Cl | 36.5 |
| COc1cccc2cc(C(=O)Nc3ccccc3C)/c(=N/O)oc12 | 4.6 (≈ 14.2 µM) |
| C=CCNC(=O)C1=NN(c2c(F)c(F)cc(F)c2F)C(=O)CC1 | > 49.4 |
| CN1CCC(N(C)C(=O)c2ccc(Cl)c(S(=O)(=O)N(C)c3ccc(Cl)cc3)c2)CC1 | > 70.6 |
| COc1ccc(C(=O)N2CCC(C(=O)c3c(C)cc(C)cc3C)CC2)cc1 | 31.4 (≈ 85.9 µM) |
| COCCN1Cc2cccc(C(=O)NCCc3ccccc3)c2C1=O | 41.5 (≈ 123 µM) |
| COc1cccc(NC(=O)Cn2cc(C(=O)C3CC3)c3ccccc32)c1 | 0.8 (≈ 2.3 µM) |
| COc1ccc(NC(=O)CSc2ccc3c(c2)OCCO3)cc1S(N)(=O)=O | > 61.6 |
| O=C(NCc1cccnc1)C1CCC(c2ccc(Cl)cc2)CC1 (centres undefined) | 14.9 (≈ 45.3 µM) |
| O=C(COC(=O)c1cccnc1Cl)NCC1CCCO1 (centres undefined) | > 44.8 |
| COc1ccc(C(=O)CN2C(=O)COc3ccccc32)cc1 | 43.1 (≈ 145 µM) |
| CCn1c(SCC(=O)NC2CCCC2)nnc1-c1cccnc1 | > 49.7 |
| O=C(O)CSCC(=O)NCc1c(Cl)cccc1Oc1ccccc1 | 52 (≈ 142 µM) |
| CN1CCCN(C(=O)CNC(=O)c2ccccc2F)CC1 | > 44 |
| CN1CCCN(C(=O)c2ccc(Br)cc2)CC1 | 41.4 (≈ 139 µM) |

| Compound | solubility kinetic [µg/mL] |
| --- | --- |
| Cc1ccc(C)c(C(C)NC(=O)c2ccncc2)c1 (centres undefined) | 36 (≈ 142 µM) |
| O=CC(Cl)P(=O)(N1CCOCC1)N1CCOCC1 (centres undefined) | 32.5 (≈ 110 µM) |
| COc1ccc(C)c2sc(=NC(=O)c3cccc(N4C(=O)CCC4=O)c3)n(C)c12 | < 0.3 |
| Cl.c1ccc(OCC2CCNCC2)nc1 | 33.7 |
| Cc1ccccc1S(=O)(=O)c1cc2ccccc2nc1N | 1.5 (≈ 5.03 µM) |
| COc1ccc(C(CCNCc2ccc(OC)c(OC)c2)c2ccc(F)cc2)cc1 (centres undefined) | > 61.4 |
| Cc1cc([N+](=O)[O-])c2ccccc2[n+]1[O-] | > 30.6 |
| Cn1cccc1/C=C(\C#N)c1ccccc1 | 15.4 (≈ 73.9 µM) |
| CN1C(=O)C(O)N=C(c2ccccc2)c2ccccc21 (centres undefined) | > 39.9 |
| Cc1ccc(NC(=O)CNS(=O)(=O)c2ccc(F)cc2)cc1C | 6.7 (≈ 19.9 µM) |
| O=C(COC(=O)COc1ccccc1F)Nc1ccc(Cl)cn1 | 7.6 (≈ 22.4 µM) |
| COc1ccc(N(CC(=O)NC2CCS(=O)(=O)C2)S(=O)(=O)c2cc(C)ccc2C)cc1 (centres undefined) | 66.3 (≈ 142 µM) |
| NC(=O)CN1C(=O)NC2(CCCc3sccc32)C1=O (centres undefined) | > 41.9 |
| Cc1ccn2c(=O)cc(C)nc2c1 | > 26.1 |
| CC(NC(=O)CCNC(=O)c1ccco1)c1ccc(F)cc1 (centres undefined) | > 45.6 |
| Cc1cc(C)c2nc(NC(=O)c3ccc([N+](=O)[O-])o3)sc2c1 | < 0.2 |
| Cc1cccc(OCC(=O)N2CCCc3ccccc32)c1 | 30.3 (≈ 108 µM) |
| O=C(CSCc1ccc(C(=O)O)cc1)Nc1ccc2ccccc2c1 | > 52.7 |
| CCCc1nc2oc3ccccc3c(=O)c2c(=O)n1CCCOC | > 49.3 |
| O=C(CNC(=O)c1cccs1)OCc1ccc(Cl)cc1 | 41 (≈ 132 µM) |
| Cc1sc(NC(=O)Nc2ccccc2)c(C(N)=O)c1C | 5.1 (≈ 17.6 µM) |
| O=C(Cn1cncn1)NCCCc1ccccc1 | > 36.6 |
| COc1ccc(CN(C)C(=O)c2sccc2-c2ccccc2)c(OC)c1 | 12 (≈ 32.7 µM) |
| Cc1nc(-c2ccccc2)nc2sc(C(=O)c3ccc(F)cc3)c(N)c12 | 1.5 (≈ 4.13 µM) |

| Compound | solubility kinetic [µg/mL] |
| --- | --- |
| O=C(COC(=O)c1cnccn1)Nc1ccccc1-c1ccccc1 | > 50 |
| CN(C)/C(=N\S(=O)(=O)c1ccc(F)cc1)c1ccccc1 | > 46 |
| Cc1cc2nc(=O)c(/C=C3\C=Nc4ccccc43)c(N)n2o1 | < 0.2 |
| O=C(CCc1ccccc1)Nc1cc2c3c(c1)CC(=O)N3CCC2 | > 48.1 |
| COc1ccc([N+](=O)[O-])cc1NC(=O)c1ccccc1SC | 0.4 (≈ 1.26 µM) |
| C=CCn1c(N2CCOCC2)nc2c1c(=O)[nH]c(=O)n2C | > 43.7 |
| CC1CCc2c(sc(NC(=O)/C=C/c3cccs3)c2C(=O)O)C1 (centres undefined) | > 52.1 |
| O=C(COC(=O)c1ccccc1Cl)NC1CCCCCC1 | 29.5 (≈ 95.2 µM) |
| COc1ccc(NC(=S)NCc2ccccc2)c(OC)c1 | 38.8 (≈ 128 µM) |
| COc1ccc(/C(N)=N/OC(=O)CCC2CCCC2)cc1 | 4.2 (≈ 14.5 µM) |
| CC(C)N1CC(C(=O)Nc2ccc(Cl)c([N+](=O)[O-])c2)CC1=O (centres undefined) | 45.4 (≈ 139 µM) |
| Cn1c(COc2ccccc2O)[n+](C)c2ccccc21.[Br-] | > 52.4 |
| CC(=O)Nc1cccc(C(=O)OC2CCOC2=O)c1 (centres undefined) | > 39.5 |
| CCc1ccccc1N(C(C)=O)c1nc(CCl)cs1 | > 44.2 |
| O=C(NC1CCCCCCC1)c1cc([N+](=O)[O-])ccc1Cl | 8.5 (≈ 27.4 µM) |
| COc1cc2ncnc(NCc3ccc(F)cc3)c2cc1OC | > 47 |
| CC(=O)Nc1cc(NC(C)=O)cc(-c2nc3ccccc3[nH]2)c1 | > 46.3 |
| O=C(CCNC(=O)c1ccc(Br)cc1)Nc1ncccc1O | 52.3 (≈ 144 µM) |
| COc1ccc(C2(O)C(=O)Nc3ccccc32)cc1 (centres undefined) | > 38.3 |
| CC(C)(C)NC(=O)COC(=O)c1ccc(Cl)nc1 | 36.4 (≈ 134 µM) |
| O=S(=O)(c1cc(F)ccc1F)N1CCC2(CC1)OCCO2 | > 47.9 |
| COc1ccc(-c2noc(CN(C)C(=O)c3ccoc3C)n2)cc1 | 40.6 (≈ 124 µM) |
| O=C(NCCC1=CCCCC1)c1cc2ccccc2oc1=O | < 0.6 |
| Cc1csc(NC(=O)COc2ccc3c(c2)CCC3)n1 | 6.9 (≈ 23.9 µM) |

| Compound | solubility kinetic [µg/mL] |
| --- | --- |
| CNc1snc(C)c1C(=O)OCC(=O)N(C)c1ccccc1 | > 47.9 |
| COc1ccc(OC)c(NC(=O)CCCSc2ccccc2)c1 | 13.7 (≈ 41.3 µM) |
| O=C(NCc1c(Cl)cccc1Oc1ccccc1)c1ccccc1 | 0.9 (≈ 2.66 µM) |
| Cc1ccccc1OS(=O)(=O)c1cn(C)c(=O)n(C)c1=O | > 46.5 |
| Cc1csc(Nc2ccc(Cl)cc2)n1 | 10.5 (≈ 46.7 µM) |
| Cc1ccc(Cl)c(NC(=O)CN2CCN(C=O)CC2)c1 | 36.6 (≈ 124 µM) |
| O=C1C2C3C=CC(CC3)C2C(=O)N1c1ccccc1[N+](=O)[O-] (centres undefined) | 14.5 (≈ 48.6 µM) |
| CCN(CC)C(=O)N[C@H]1C[C@@H]2c3cccc4[nH]cc(c34)C[C@H]2N(C)C1 | 14.1 (≈ 41.4 µM) |
| O=C(O)c1ncc(Cl)c(Cl)c1Cl | 33.1 (≈ 146 µM) |
| Cc1cccc(C2=NOC(=O)/C2=C\c2ccccc2F)c1 | 6.5 (≈ 23.1 µM) |
| Nc1c(C(=O)N2CCCCC2)sc2nc3c(cc12)CCCC3 | 41.7 (≈ 132 µM) |
| O=C(Cc1ccccc1)c1c[nH]c(C(=O)NCCCn2ccnc2)c1 | > 50.5 |
| CCN1C(C#N)=C(C#N)N=C(C)CC1(C)C | 29.8 (≈ 138 µM) |
| C[C@@H]1NC(=O)/C(=C\c2ccccc2Br)NC1=O | 13.1 (≈ 44.4 µM) |
| Cc1cc(=O)[nH]c(Nc2cccc(Br)c2)n1 | > 42 |
| COc1ccc(NC(=O)COC(=O)C2CC2)c(OC)c1 | > 41.9 |
| O=c1[nH]cnc(O)c1C(c1cccc([N+](=O)[O-])c1)c1c(O)nc[nH]c1=O | > 53.6 |
| O=C(O)c1ccc(NCc2cccnc2)c([N+](=O)[O-])c1 | > 41 |
| N#CSC(c1ccccc1)c1nc2ccccc2[nH]c1=O (centres undefined) | 26.9 (≈ 91.7 µM) |
| COC(=O)c1ccccc1NC(=O)COC(=O)/C=C/c1cccs1 | 1.8 (≈ 5.21 µM) |
| CCOc1ccc2ccccc2c1C(=O)N[C@@H]1C(=O)N2[C@@H]1SC(C)(C)[C@@H]2C(=O)[O-].[Na+] | > 65.5 |
| O=C(Nc1nnc2n1CCS2)c1ccc(Br)o1 | > 47.3 |
| CCN1C(=O)c2cccc3c(Cl)ccc(c23)C1=O | 1 (≈ 3.85 µM) |
